Test results taken from patent US20090005390A1, “NOVEL QUINUCLIDINE DERIVATIVES AND THEIR USE” (N[…]/S, priority 2002, published 2009).

Columns and labels:
[1] = biological target: T1, α7-subtype of nicotinic receptors (Rattus norvegicus, UniProt Q05941); experiment: In vitro inhibition of 3H-α-bungarotoxine binding in rat brain; conditions: rat cerebral cortex homogenate; 3H-α-bungarotoxine 2 nM; 2 hours at 37° C.
T1 construct: Cerebral cortices from male Wistar rats (150-250 g) are homogenised; from tissue; host or cells: rat cerebral cortex membrane homogenate
T1 sequence (Q05941 23-502): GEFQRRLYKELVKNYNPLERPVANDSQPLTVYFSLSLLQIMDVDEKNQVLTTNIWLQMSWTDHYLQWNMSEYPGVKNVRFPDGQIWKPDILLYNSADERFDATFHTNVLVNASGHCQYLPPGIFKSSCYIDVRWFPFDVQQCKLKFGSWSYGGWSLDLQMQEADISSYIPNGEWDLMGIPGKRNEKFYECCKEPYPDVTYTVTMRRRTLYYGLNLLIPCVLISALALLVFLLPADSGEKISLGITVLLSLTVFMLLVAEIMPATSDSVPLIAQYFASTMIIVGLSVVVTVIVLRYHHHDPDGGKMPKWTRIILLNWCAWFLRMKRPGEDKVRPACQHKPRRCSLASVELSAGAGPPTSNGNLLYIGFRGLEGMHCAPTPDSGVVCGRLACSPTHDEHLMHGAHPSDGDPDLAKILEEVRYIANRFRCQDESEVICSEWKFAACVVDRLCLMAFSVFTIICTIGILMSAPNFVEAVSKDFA

| SMILES | melting point | IC50 [1] |
| --- | --- | --- |
| O=C(O)/C=C/C(=O)O.c1ccc2nc(OC3CN4CCC3CC4)ccc2c1 (racemic) | 160 to 160.5 °C |  |
| O=C(O)/C=C/C(=O)O.c1csc(-c2ccc(OC3CN4CCC3CC4)nn2)c1 (racemic) [Compound D8, (±)-3-[6-(2-Thienyl)-pyridazin-3-yloxy]-1-aza-bicyclo[2.2.2]octane fumaric acid salt] | 180.3 to 191.1 °C | 53 nM |
| O=C(O)/C=C/C(=O)O.c1ccc(-c2cnc(OC3CN4CCC3CC4)s2)cc1 (racemic) [Compound D1, (±)-3-(5-Phenyl-thiazol-2-yloxy)-1-aza-bicyclo[2.2.2]octane fumaric acid salt] | 170.9 to 172.2 °C | 52 nM |
| C.I.c1ccc2nc(OC3CN4CCC3CC4)ccc2c1 (racemic) | 156.6 to 175.2 °C |  |
| COc1nc2ccccc2nc1OC1CN2CCC1CC2.O=C(O)/C=C/C(=O)O (racemic) | 168.5 to 170 °C |  |
| O=C(O)/C=C/C(=O)O.c1cc(-c2cnc(OC3CN4CCC3CC4)s2)co1 (racemic) [Compound D5, (±)-3-[5-(3-Furanyl)-thiazol-2-yloxy]-1-aza-bicyclo[2.2.2]octane fumaric acid salt] | 127.6 to 136.2 °C | 48 nM |
| Clc1ccc2nc(OC3CN4CCC3CC4)sc2c1.O=C(O)/C=C/C(=O)O (racemic) [Compound B2, (±)-3-(6-Chloro-benzothiazol-2-yloxy)-1-aza-bicyclo[2.2.2]octane fumaric acid salt] | 203 to 205 °C | 180 nM |
| O=C(O)/C=C/C(=O)O.c1csc(-c2cnc(OC3CN4CCC3CC4)s2)c1 (racemic) [Compound D4, (±)-3-[5-(2-Thienyl)-thiazol-2-yloxy]-1-aza-bicyclo[2.2.2]octane fumaric acid salt] | 152.6 to 154.9 °C | 20 nM |
| O=C(O)/C=C/C(=O)O.c1cnc2ccc(OC3CN4CCC3CC4)cc2c1 (racemic) | 146 to 147 °C |  |
| O=C(O)/C=C/C(=O)O.c1cc2c(cc1OC1CN3CCC1CC3)CCC2 (racemic) | 149.3 to 150.5 °C |  |
| O=C(O)/C=C/C(=O)O.c1cc2c(cc1OC1CN3CCC1CC3)CCCC2 (racemic) | 109.7 to 111.3 °C |  |
| Fc1ccc(-c2cnc(OC3CN4CCC3CC4)s2)c(F)c1.O=C(O)/C=C/C(=O)O (racemic) | 84.3 to 86.3 °C |  |
| O=C(O)/C=C/C(=O)O.c1ccc(-c2ccc(OC3CN4CCC3CC4)cc2)cc1 (racemic) [Compound A2, (±)-3-(4-Phenylphenyloxy)-1-aza-bicyclo[2.2.2]octane fumaric acid salt] | 173.5 to 185.1 °C | 160 nM |
| O=C(O)/C=C/C(=O)O.c1ccc2oc(OC3CN4CCC3CC4)nc2c1 (racemic) | 187.2 to 188.8 °C |  |
| C.I.c1ccc2c(OC3CN4CCC3CC4)nsc2c1 (racemic) | 180.1 to 186.4 °C |  |
| O=C(O)/C=C/C(=O)O.c1cncc(-c2ccc(OC3CN4CCC3CC4)nn2)c1 (racemic) | 137.2 to 143.2 °C |  |
| O=C(O)/C=C/C(=O)O.c1ccc(-c2ccccc2OC2CN3CCC2CC3)cc1 (racemic) | 125.4 °C |  |
| O=C(O)/C=C/C(=O)O.c1ccc(-c2nnc(OC3CN4CCC3CC4)s2)cc1 (racemic) | 168.5 to 172 °C |  |

| SMILES | melting point | IC50 [1] |
| --- | --- | --- |
| O=C(O)/C=C/C(=O)O.c1cc(-c2ccc(OC3CN4CCC3CC4)nn2)co1 (racemic) | 224.8 to 225.4 °C |  |
| O=C(O)/C=C/C(=O)O.c1ccc(-c2ccc(OC3CN4CCC3CC4)nn2)cc1 (racemic) | 168.5 to 172 °C |  |
| O=C(O)/C=C/C(=O)O.c1coc(-c2ccc(OC3CN4CCC3CC4)nn2)c1 (racemic) | 175.8 to 178.2 °C |  |
| Cn1c(OC2CN3CCC2CC3)nc2ccccc21.O=C(O)/C=C/C(=O)O (racemic) | 184.9 to 185.9 °C |  |
| Clc1nc2ccccc2nc1OC1CN2CCC1CC2.O=C(O)/C=C/C(=O)O (racemic) | 120.8 to 122.1 °C |  |
| O=C(O)/C=C/C(=O)O.c1ccc2sc(OC3CN4CCC3CC4)nc2c1 (racemic) [Compound B3, (±)-3-(Benzothiazol-2-yloxy)-1-aza-bicyclo[2.2.2]octane fumaric acid salt] | 173.7 to 174.2 °C | 170 nM |
| Brc1ccc(OC2CN3CCC2CC3)nn1.O=C(O)/C=C/C(=O)O (racemic) | 152.8 °C |  |
| Clc1ccc(OC2CN3CCC2CC3)nn1.O=C(O)/C=C/C(=O)O (racemic) | 164 to 164.5 °C |  |
| C.I.c1ccc2nc(OC3CN4CCC3CC4)cnc2c1 (racemic) | 229 to 230 °C |  |
| O=C(O)/C=C/C(=O)O.c1ccc2cc(OC3CN4CCC3CC4)ccc2c1 (racemic) | 140.9 to 141.6 °C |  |
| O=C(O)/C=C/C(=O)O.c1ccc2nc(OC3CN4CCC3CC4)cnc2c1 (racemic) | 127.7 to 128.5 °C |  |
| O=C(O)/C=C/C(=O)O.c1cc(-c2ccc(OC3CN4CCC3CC4)nn2)cs1 (racemic) [Compound D7, (±)-3-[6-(3-Thienyl)-pyridazin-3-yloxy]-1-aza-bicyclo[2.2.2]octane fumaric acid salt] | 197.9 °C | 130 nM |
| O=C(O)/C=C/C(=O)O.c1cc(-c2nnc(OC3CN4CCC3CC4)s2)cs1 (racemic) [Compound B17, (±)-3-[5-(3-Thienyl)-1,3,4-thiadiazol-2-yloxy]-1-aza-bicyclo[2.2.2]octane fumaric acid salt] | 186 to 188 °C | 150 nM |
| Brc1cnc(OC2CN3CCC2CC3)s1.O=C(O)/C=C/C(=O)O (racemic) | 157.8 to 162.1 °C |  |
| O=C(O)/C=C/C(=O)O.c1cncc(-c2cnc(OC3CN4CCC3CC4)s2)c1 (racemic) [Compound D6, (±)-3-[5-(3-Pyridyl)-thiazol-2-yloxy]-1-aza-bicyclo[2.2.2]octane fumaric acid salt] | 82.7 to 86 °C | 180 nM |
| O=C(O)/C=C/C(=O)O.c1cc(-c2cnc(OC3CN4CCC3CC4)s2)cs1 (racemic) [Compound D3, (±)-3-[5-(3-Thienyl)-thiazol-2-yloxy]-1-aza-bicyclo[2.2.2]octane fumaric acid salt] | 68.5 to 74.3 °C | 110 nM |
| O=C(O)/C=C/C(=O)O.c1ccc2c(OC3CN4CCC3CC4)nsc2c1 (racemic) | 172.3 to 173.6 °C |  |
